{"source": "PubChem BioAssay (NCI)", "test_in_all_cases": "growth of human tumour cells (NCI), 48 h", "key": {"CAKI-1 renal": {"system": "CAKI-1 renal"}, "HCC-2998 colon": {"system": "HCC-2998 colon"}, "K-562 leukemia": {"system": "K-562 leukemia"}, "LOX IMVI melanoma": {"system": "LOX IMVI melanoma"}, "M14 melanoma": {"system": "M14 melanoma"}, "NCI-H226 lung": {"system": "NCI-H226 lung"}, "RPMI-8226 leukemia": {"system": "RPMI-8226 leukemia"}, "SF-295 CNS": {"system": "SF-295 CNS"}, "SF-539 CNS": {"system": "SF-539 CNS"}, "T-47D breast": {"system": "T-47D breast"}, "UO-31 renal": {"system": "UO-31 renal"}}, "note": "Where “and” joins values, the source holds several entries; their conditions need not be identical. Equal values may be shown once.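 Grown in 96-well plates, cells were treated for 48 hours with each compound at five concentrations. Insufficient inhibition: endpoint recorded as highest concentration tested. GI50 marks 50% less growth. TGI: total growth inhibition.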"}
{"smiles": "Cc1c(C)c(S(=O)(=O)N(CCCCN)OCCCN)c(C)c2c1OC(C)(C)CC2", "values": [{"measurement": "TGI", "setting": "CAKI-1 renal", "result": "> 100", "unit": "µM"}, {"measurement": "TGI", "setting": "HCC-2998 colon", "result": 20.8, "unit": "µM"}, {"measurement": "TGI", "setting": "K-562 leukemia", "result": "> 100", "unit": "µM"}, {"measurement": "TGI", "setting": "LOX IMVI melanoma", "result": 40.4, "unit": "µM"}, {"measurement": "TGI", "setting": "M14 melanoma", "result": 98.3, "unit": "µM"}, {"measurement": "TGI", "setting": "NCI-H226 lung", "result": 30.1, "unit": "µM"}, {"measurement": "TGI", "setting": "RPMI-8226 leukemia", "result": 66.5, "unit": "µM"}, {"measurement": "TGI", "setting": "SF-295 CNS", "result": 40.6, "unit": "µM"}, {"measurement": "TGI", "setting": "SF-539 CNS", "result": 64.2, "unit": "µM"}, {"measurement": "TGI", "setting": "T-47D breast", "result": "> 100", "unit": "µM"}, {"measurement": "TGI", "setting": "UO-31 renal", "result": 43, "unit": "µM"}]}
{"smiles": "O=C(NCCN(CCNC(=O)c1cccc(O)c1O)CCNC(=O)c1cccc(O)c1O)c1cccc(O)c1O", "values": [{"measurement": "TGI", "setting": "CAKI-1 renal", "result": "> 100", "unit": "µM"}, {"measurement": "TGI", "setting": "HCC-2998 colon", "result": "> 60.2", "unit": "µM"}, {"measurement": "TGI", "setting": "K-562 leukemia", "result": "> 100", "unit": "µM"}, {"measurement": "TGI", "setting": "LOX IMVI melanoma", "result": "> 51.5", "unit": "µM"}, {"measurement": "TGI", "setting": "M14 melanoma", "result": "> 100", "unit": "µM"}, {"measurement": "TGI", "setting": "NCI-H226 lung", "result": 85.6, "unit": "µM"}, {"measurement": "TGI", "setting": "RPMI-8226 leukemia", "result": "> 59.7", "unit": "µM"}, {"measurement": "TGI", "setting": "SF-295 CNS", "result": "> 100", "unit": "µM"}, {"measurement": "TGI", "setting": "SF-539 CNS", "result": "> 100", "unit": "µM"}, {"measurement": "TGI", "setting": "T-47D breast", "result": "> 89.7", "unit": "µM"}, {"measurement": "TGI", "setting": "UO-31 renal", "result": "> 100", "unit": "µM"}]}
{"smiles": "COc1cc([C@@H]2c3cc4c(cc3[C@@H](Nc3ccc(NC(=O)c5cc([N+](=O)[O-])cn5C)cc3)[C@H]3COC(=O)[C@H]23)OCO4)cc(OC)c1O", "values": [{"measurement": "GI50", "setting": "CAKI-1 renal", "result": "21.4 nM and 72.5 nM"}, {"measurement": "TGI", "setting": "CAKI-1 renal", "result": "0.204 µM and 0.338 µM"}, {"measurement": "TGI", "setting": "HCC-2998 colon", "result": "0.8 µM and 0.872 µM"}, {"measurement": "GI50", "setting": "K-562 leukemia", "result": 293, "unit": "nM"}, {"measurement": "TGI", "setting": "K-562 leukemia", "result": "> 100", "unit": "µM"}, {"measurement": "GI50", "setting": "LOX IMVI melanoma", "result": "111 nM and 26.8 nM"}, {"measurement": "TGI", "setting": "M14 melanoma", "result": "2.47 µM and 4.94 µM"}, {"measurement": "GI50", "setting": "NCI-H226 lung", "result": "179 nM and 24.9 nM"}, {"measurement": "TGI", "setting": "NCI-H226 lung", "result": 0.29, "unit": "µM"}, {"measurement": "GI50", "setting": "RPMI-8226 leukemia", "result": "< 10", "unit": "nM"}, {"measurement": "TGI", "setting": "RPMI-8226 leukemia", "result": 0.116, "unit": "µM"}, {"measurement": "GI50", "setting": "SF-295 CNS", "result": "51.3 nM and 79.3 nM"}, {"measurement": "TGI", "setting": "SF-539 CNS", "result": "0.446 µM and 0.414 µM"}, {"measurement": "GI50", "setting": "T-47D breast", "result": 11.5, "unit": "nM"}, {"measurement": "TGI", "setting": "T-47D breast", "result": "28.8 µM and > 24.4 µM"}, {"measurement": "TGI", "setting": "UO-31 renal", "result": "0.841 µM and 0.825 µM"}]}
{"smiles": "Cc1nc2c(sc3nc4c(cc32)CCC4)c(=O)o1", "values": [{"measurement": "TGI", "setting": "CAKI-1 renal", "result": "> 100", "unit": "µM"}, {"measurement": "TGI", "setting": "HCC-2998 colon", "result": "> 100", "unit": "µM"}, {"measurement": "TGI", "setting": "K-562 leukemia", "result": "> 100", "unit": "µM"}, {"measurement": "TGI", "setting": "LOX IMVI melanoma", "result": "> 100", "unit": "µM"}, {"measurement": "TGI", "setting": "M14 melanoma", "result": "> 100", "unit": "µM"}, {"measurement": "TGI", "setting": "NCI-H226 lung", "result": "> 100", "unit": "µM"}, {"measurement": "TGI", "setting": "RPMI-8226 leukemia", "result": "> 88.3", "unit": "µM"}, {"measurement": "TGI", "setting": "SF-295 CNS", "result": "> 100", "unit": "µM"}, {"measurement": "TGI", "setting": "SF-539 CNS", "result": "> 70.8", "unit": "µM"}, {"measurement": "TGI", "setting": "T-47D breast", "result": "> 100", "unit": "µM"}, {"measurement": "TGI", "setting": "UO-31 renal", "result": "> 91.1", "unit": "µM"}]}
{"smiles": "CCN1CCC(O)(c2ccc([N+](=O)[O-])cc2)C(C(=O)c2ccc([N+](=O)[O-])cc2)C1", "note": "(stereo unspecified)", "values": [{"measurement": "TGI", "setting": "CAKI-1 renal", "result": 41.2, "unit": "µM"}, {"measurement": "TGI", "setting": "HCC-2998 colon", "result": 32.8, "unit": "µM"}, {"measurement": "TGI", "setting": "K-562 leukemia", "result": "> 100", "unit": "µM"}, {"measurement": "TGI", "setting": "LOX IMVI melanoma", "result": 38.6, "unit": "µM"}, {"measurement": "TGI", "setting": "M14 melanoma", "result": 42.1, "unit": "µM"}, {"measurement": "TGI", "setting": "NCI-H226 lung", "result": 61.3, "unit": "µM"}, {"measurement": "TGI", "setting": "RPMI-8226 leukemia", "result": 17.8, "unit": "µM"}, {"measurement": "TGI", "setting": "SF-295 CNS", "result": "> 100", "unit": "µM"}, {"measurement": "TGI", "setting": "SF-539 CNS", "result": 30.7, "unit": "µM"}, {"measurement": "TGI", "setting": "T-47D breast", "result": 46.4, "unit": "µM"}, {"measurement": "TGI", "setting": "UO-31 renal", "result": 36.8, "unit": "µM"}]}
{"smiles": "C[C@@H](CC(=O)OCc1ccccc1)OC1OC(COC(=O)C(C)(C)C)C(OC(=O)C(C)(C)C)C(OC(=O)C(C)(C)C)C1OC(=O)C(C)(C)C", "note": "(stereo partly specified)", "values": [{"measurement": "TGI", "setting": "CAKI-1 renal", "result": "> 100", "unit": "µM"}, {"measurement": "TGI", "setting": "HCC-2998 colon", "result": "> 100", "unit": "µM"}, {"measurement": "TGI", "setting": "K-562 leukemia", "result": "> 100", "unit": "µM"}, {"measurement": "TGI", "setting": "LOX IMVI melanoma", "result": "> 100", "unit": "µM"}, {"measurement": "TGI", "setting": "M14 melanoma", "result": "> 100", "unit": "µM"}, {"measurement": "TGI", "setting": "NCI-H226 lung", "result": "> 100", "unit": "µM"}, {"measurement": "TGI", "setting": "RPMI-8226 leukemia", "result": "> 100", "unit": "µM"}, {"measurement": "TGI", "setting": "SF-295 CNS", "result": "> 100", "unit": "µM"}, {"measurement": "TGI", "setting": "SF-539 CNS", "result": "> 100", "unit": "µM"}, {"measurement": "TGI", "setting": "T-47D breast", "result": "> 100", "unit": "µM"}, {"measurement": "TGI", "setting": "UO-31 renal", "result": "> 100", "unit": "µM"}]}
